From PubChem BioAssay AID248 (DTP/NCI, 2004)
Values joined by “and” are separate entries in the source; they are usually repeats but may differ in a detail not shown here. Equal entries are not always repeated. Toxic doses and inconclusive results are not listed. No stated cut-off is given here; in the data, active means T/C of 150% or more; inactive means T/C below 125%.

Tested on: L1210 leukemia ip in BDF1 mice, survival T/C
Assay: NCI In Vivo Anticancer Drug Screen. Data for tumor model L1210 Leukemia (intraperitoneal) in B6D2F1 (BDF1) mice
Conditions: endpoint: mean survival time, higher = longer survival
How it was run: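 Survival endpoint. Drug-treated group vs vehicle group, expressed as T divided by C. Tumor passaged by transplantation.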

[1] = dose: 100.0 mg/kg/injection, schedule: Q04DX003 (ip), vehicle: saline with Tween-80
[2] = dose: 100.0 mg/kg/injection, schedule: Q01DX009 (ip), vehicle: Klucel (hydroxypropylcellulose) (HPC)
[3] = dose: 200.0 mg/kg/injection, schedule: Q01DX009 (ip), vehicle: Klucel (hydroxypropylcellulose) (HPC)
[4] = dose: 400.0 mg/kg/injection, schedule: Q01DX009 (ip), vehicle: Klucel (hydroxypropylcellulose) (HPC)
[5] = dose: 25.0 mg/kg/injection, schedule: Q01DX009 (ip), vehicle: saline with Tween-80
[6] = dose: 50.0 mg/kg/injection, schedule: Q01DX009 (ip), vehicle: saline with Tween-80
[7] = dose: 100.0 mg/kg/injection, schedule: Q01DX009 (ip), vehicle: saline with Tween-80
[8] = dose: 200.0 mg/kg/injection, schedule: Q01DX009 (ip), vehicle: saline with Tween-80
[9] = dose: 100.0 mg/kg/injection, schedule: Q01DX001 (ip), vehicle: saline with Tween-80
[10] = dose: 100.0 mg/kg/injection, schedule: Q04DX003 (ip), vehicle: Klucel (hydroxypropylcellulose) (HPC)
[11] = dose: 200.0 mg/kg/injection, schedule: Q04DX003 (ip), vehicle: Klucel (hydroxypropylcellulose) (HPC)
[12] = dose: 400.0 mg/kg/injection, schedule: Q04DX003 (ip), vehicle: Klucel (hydroxypropylcellulose) (HPC)
[13] = dose: 400.0 mg/kg/injection, schedule: Q01DX009 (ip), vehicle: saline with Tween-80
[14] = dose: 100.0 mg/kg/injection, schedule: Q01DX001 (ip), vehicle: carboxymethylcellulose (CMC)

Measured: T/C

N\C([S-])=N/N=C\C(=N/N=C(\N)[S-])C(O)C(O)C(O)CO.[Rh+2] (stereo not given)
inactive: dose: 100.0 mg/kg/injection, schedule: Q04DX003 (ip), vehicle: other 106 % of control | dose: 200.0 mg/kg/injection, schedule: Q04DX003 (ip), vehicle: other 93 % of control | dose: 400.0 mg/kg/injection, schedule: Q04DX003 (ip), vehicle: other 98 % of control

N=C(N)N=Nc1ccc(NN=C(N)N)c2ccccc12
inactive: dose: 15.0 mg/kg/injection, schedule: Q01DX Z (ip), vehicle: saline 94 % of control | dose: 15.0 mg/kg/injection, schedule: Q01DX Z (oral), vehicle: other 103 % of control | dose: 30.0 mg/kg/injection, schedule: Q01DX Z (ip), vehicle: saline 102 % of control | dose: 30.0 mg/kg/injection, schedule: Q01DX Z (oral), vehicle: other 98 % of control | dose: 60.0 mg/kg/injection, schedule: Q01DX Z (oral), vehicle: other 98 % of control | dose: 120.0 mg/kg/injection, schedule: Q01DX Z (oral), vehicle: other 95 % of control

COc1ccc(CC(=O)NC(N)=O)cc1
inactive: [1] 101 % of control | dose: 200.0 mg/kg/injection, schedule: Q04DX003 (ip), vehicle: saline with Tween-80 97 % of control | dose: 400.0 mg/kg/injection, schedule: Q04DX003 (ip), vehicle: saline with Tween-80 90 % of control

CC1(C)C2CCC1(C)C(N1C(c3ccccc3)C1c1ccccc1)C2 (stereo not given)
inactive: [2] 90 % of control | [3] 88 % of control | [4] 90 % of control

c1ccc2cc3c(cc2c1)Nc1ccncc1N3
inactive: dose: 12.5 mg/kg/injection, schedule: Q01DX009 (ip), vehicle: saline with Tween-80 106 % of control | [5] 103 % of control | [6] 100 % of control

CC(=O)Oc1cccc(C)c1
inactive: [7] 104 % of control | [8] 106 % of control

CCCCCCSCCO
inactive: dose: 100.0 mg/kg/injection, schedule: Q01DX001 (ip), vehicle: saline 94 % of control | dose: 200.0 mg/kg/injection, schedule: Q01DX001 (ip), vehicle: saline 94 % of control | dose: 400.0 mg/kg/injection, schedule: Q01DX001 (ip), vehicle: saline 93 % of control

CCCCCCCCCCN1CCN2C(=O)N(CC)CCC2C1 (stereo not given)
inactive: dose: 25.0 mg/kg/injection, schedule: Q04DX003 (ip), vehicle: saline with Tween-80 94 % of control | dose: 50.0 mg/kg/injection, schedule: Q04DX003 (ip), vehicle: saline with Tween-80 105 % of control | [9] 96 % of control | [1] 94 % of control

COc1ccc2c(O)coc2c1
inactive: [2] 100 % of control | [10] 104 % of control | [3] 101 % of control | [11] 102 % of control | [4] 96 % of control | [12] 93 % of control

CC(=O)n1c2ccccc2c2nc3cnccc3nc21
inactive: dose: 16.0 mg/kg/injection, schedule: Q01DX005 (ip), vehicle: saline 97 % of control | dose: 32.0 mg/kg/injection, schedule: Q01DX005 (ip), vehicle: saline 97 % of control | dose: 64.0 mg/kg/injection, schedule: Q01DX005 (ip), vehicle: saline 107 % of control

N#Cc1cc2c3c(c1)CCCN3CCC2
inactive: [6] 91 % of control | [7] 93 % of control | [8] 90 % of control | [13] 96 % of control

CCCCC(CCC)(CCN)CCCC
inactive: dose: 1.0 mg/kg/injection, schedule: Q01DX009 (ip), vehicle: Klucel (hydroxypropylcellulose) (HPC) 100 % of control | dose: 2.0 mg/kg/injection, schedule: Q01DX009 (ip), vehicle: Klucel (hydroxypropylcellulose) (HPC) 100 % of control | dose: 2.0 mg/kg/injection, schedule: Q04DX003 (ip), vehicle: Klucel (hydroxypropylcellulose) (HPC) 98 % of control | dose: 4.0 mg/kg/injection, schedule: Q01DX009 (ip), vehicle: Klucel (hydroxypropylcellulose) (HPC) 101 % of control | dose: 4.0 mg/kg/injection, schedule: Q04DX003 (ip), vehicle: Klucel (hydroxypropylcellulose) (HPC) 98 % of control | dose: 8.0 mg/kg/injection, schedule: Q01DX009 (ip), vehicle: Klucel (hydroxypropylcellulose) (HPC) 100 % of control | dose: 8.0 mg/kg/injection, schedule: Q04DX003 (ip), vehicle: Klucel (hydroxypropylcellulose) (HPC) 93 % of control | dose: 16.0 mg/kg/injection, schedule: Q04DX003 (ip), vehicle: Klucel (hydroxypropylcellulose) (HPC) 96 % of control | dose: 25.0 mg/kg/injection, schedule: Q01DX001 (ip), vehicle: carboxymethylcellulose (CMC) 95 % of control | [14] 93 % of control

O=C1OC(c2ccc(Cl)cc2)=N/C1=C\c1ccc(Cl)c(Cl)c1
inactive: dose: 100.0 mg/kg/injection, schedule: Q04DX002 (ip), vehicle: saline 106 % of control | dose: 200.0 mg/kg/injection, schedule: Q04DX002 (ip), vehicle: saline 92 % of control | dose: 400.0 mg/kg/injection, schedule: Q04DX002 (ip), vehicle: saline 100 % of control

O=C(O)CSCc1ccccc1
inactive: [5] 102 % of control | [6] 95 % of control | [7] 100 % of control and 102 % of control | [10] 94 % of control | [11] 100 % of control | [12] 102 % of control

C=CCN(CC=C)/N=N/c1[nH]ncc1C(=O)OCC
inactive: [9] 100 % of control | [7] 106 % of control | dose: 200.0 mg/kg/injection, schedule: Q01DX001 (ip), vehicle: saline with Tween-80 92 % of control | [8] 100 % of control | dose: 400.0 mg/kg/injection, schedule: Q01DX001 (ip), vehicle: saline with Tween-80 101 % of control | [13] 104 % of control

C[N+]1(Cc2c[nH]c3ccsc23)CCCCC1
inactive: dose: 3.0 mg/kg/injection, schedule: Q01DX009 (ip), vehicle: saline with Tween-80 99 % of control | dose: 6.0 mg/kg/injection, schedule: Q01DX009 (ip), vehicle: saline with Tween-80 97 % of control | dose: 12.0 mg/kg/injection, schedule: Q01DX009 (ip), vehicle: saline with Tween-80 90 % of control | dose: 12.5 mg/kg/injection, schedule: Q04DX003 (ip), vehicle: saline with Tween-80 101 % of control

COC(=O)/C=C(/Oc1cccc([N+](=O)[O-])c1)C(=O)OC
inactive: dose: 75.0 mg/kg/injection, schedule: Q04DX003 (ip), vehicle: saline 105 % of control | dose: 150.0 mg/kg/injection, schedule: Q04DX003 (ip), vehicle: saline 96 % of control | dose: 300.0 mg/kg/injection, schedule: Q04DX003 (ip), vehicle: saline 98 % of control

C[n+]1ccc(C#N)c2ccccc21
inactive: dose: 1.56 mg/kg/injection, schedule: Q01DX009 (ip), vehicle: saline 96 % of control | dose: 3.12 mg/kg/injection, schedule: Q01DX009 (ip), vehicle: saline 98 % of control | dose: 6.25 mg/kg/injection, schedule: Q01DX009 (ip), vehicle: saline 106 % of control | dose: 12.5 mg/kg/injection, schedule: Q01DX009 (ip), vehicle: saline 98 % of control | dose: 12.5 mg/kg/injection, schedule: Q04DX003 (ip), vehicle: saline 101 % of control

Cc1cccn2c(=O)c(/C=N\NC(N)=S)c(Cl)nc12
inactive: [14] 105 % of control | dose: 200.0 mg/kg/injection, schedule: Q01DX001 (ip), vehicle: carboxymethylcellulose (CMC) 96 % of control | dose: 400.0 mg/kg/injection, schedule: Q01DX001 (ip), vehicle: carboxymethylcellulose (CMC) 94 % of control
